How the values were obtained:
MCAO rats [1] = test: Cerebral infarct volume (TTC staining) in rat MCAO ischemia-reperfusion model; format: in vivo; details: for extent of cerebral infarction compared with the model group: 24 h, t-test versus model group, doses as in Table 2; for Percentage of cerebral infarction volume (%): 24 hours after MCAO ischemia, tail vein, single dose, n=10
MCAO rats [2] = test: Neurological deficit scoring (Longa method) in rat MCAO ischemia-reperfusion stroke model; details: for neurological symptoms of rats compared with the model group: 24 h postoperatively, t-test versus model group, doses as in Table 1; for Score 2h: neurological deficit score 2 h after ischemia (administration started at reperfusion after 2 h); for Score 2h / Score 24h: tail vein, single dose, n=10; for Score 24h: neurological deficit score 24 h post-surgery
Procedure: Administration was initiated upon reperfusion after 2 hours of ischemia. The model and the sham operation group were given an equal volume 5% glucose injection solution via tail vein injection, while the other groups were injected with the corresponding drugs via tail vein, each with a single dose. […] Performing modeling surgery: The rat MCAO model was established with reference to the Longa intraluminal filament occlusion method. Nylon monofilament was cut into 2 cm lengths, the tip was dipped into a tiny amount of molten paraffin, after cooling, the ends of the nylon threads were completely wrapped for later use. The rats were completely anesthetized with 3% sodium pentobarbital (30 mg/kg), and placed supine, and secured on a surgical board. The cervical skin was prepared and disinfected, a 2-cm mid line incision was made. The left common carotid artery was bluntly isolated, and the external and internal carotid arteries were dissected free along the common carotid artery. The distal ends of the common carotid artery and the external carotid artery were ligated, and the internal carotid artery was occluded using hemostatic forceps. A small arteriotomy was made in the common carotid artery and the prepared nylon monofilament was inserted through the opening. The wax-coated tip was inserted into the common carotid artery and advanced into the internal carotid artery, the hemostat was released, and the advancement of the wax tip was stopped when it was 13-16 mm from the opening. The filament was secured, and the cervical incision was closed. After 2 h of occlusion, rats were anesthetized and the filament was withdrawn. In the sham operation group, rats were completely anesthetized with only 3% sodium pentobarbital. After cervical skin preparation and incision, the common carotid artery was bluntly isolated, and the wound immediately closed, without filament insertion. […] Neurological deficit scoring: scoring time: before modeling, 2 h after ischemia, and 24 h post-surgery, all surviving animals were scored in a blinded manner using a modified neurological deficit score. The scoring criteria of Longa's method were as follows: 0: normal neurological function; 1: mild neurological deficit: when suspended by the tail, the animal's left forelimb was flexed; 2: moderate neurological deficit: when placed on a smooth surface, the animal circles to the left side while walking; 3: moderate neurological deficit: at rest, the animal leans to the left side; 4: depressed consciousness with no spontaneous limb movements; 5: unresponsive to stimuli or death. […] Result analysis: The t-test was used to compare the behavioral test scores between groups.

[3] = test system: platelet aggregation in rats; test: ADP-induced platelet aggregation in platelet-rich plasma of rats after oral gavage; format: in vivo; details: for Maximum platelet aggregation rate (%): blood taken 3 hours after gavage, 20µM ADP, platelet-rich plasma, n=10; for platelet aggregation rate compared with the solvent control group: significance versus solvent control group, doses as in Table 3
Procedure: After oral gavage administration for 3 hours on the same day, blood was collected from the abdominal aorta to obtain platelet-rich plasma from each group. Platelet aggregation was induced by 20µM ADP, and the maximum platelet aggregation rate in platelet-rich plasma was determined by platelet aggregometer, to evaluate and compare the effects of platelet aggregation in rats.

SD rats = test: Repeated administration toxicity test in rats (14 days, tail vein); details: once daily for 14 consecutive days, n=10
[4] = Stability test (influence factor test, Chinese Pharmacopoeia 2020 General Chapter 9001); details: for Decomposition product butylphthalide %: HPLC; for appearance / main peak and butylphthalide content: 30 days under open high-temperature and light exposure
Procedure: An appropriate amount of each compound to be tested was taken, and the influence factor test was conducted according to the General Chapter 9001 of Part 4 of the 2020 Edition of the Chinese Pharmacopoeia. The appearance of the compounds and the content of the main degradation product, butylphthalide, were detected respectively on day 0 and day 30 for each compound. The detection of butylphthalide was performed using high performance liquid chromatography, with a column packed with octadecylsilane-bonded silica gel, and a mobile phase of methanol-water (65:35).

[5] = Solubility test (Chinese Pharmacopoeia 2020 method); format: physicochemical
[6] = as stated for CN1523003A, background art; cited from earlier work
[7] = as stated for CN1523003A, background art; cited from earlier work; remark: listed apart in the source

NC12CC3CC(CC(C3)C1)C2 [Amantadine, amantadine, reference compound]
extent of cerebral infarction compared with the model group (MCAO rats [1]): no significant inhibitory effect | Percentage of cerebral infarction volume (%) (MCAO rats [1]; 0.016 mmol/kg): 35.1±4.56% | neurological symptoms of rats compared with the model group (MCAO rats [2]): no significant improvement | Score 2h (MCAO rats [2]; group dose 0.016 mmol/kg): 2.5±1.08 | Score 24h (MCAO rats [2]; 0.016 mmol/kg): 3.00±0.82

CC(=O)Oc1ccccc1C(=O)O [Aspirin, reference compound]
Maximum platelet aggregation rate (%) ([3]; ig 100 mg/kg): 27.00±6.48 % | platelet aggregation rate compared with the solvent control group [3]: highly significantly different

CCCCC1OC(=O)c2ccccc21 (stereo not shown) [Butylphthalide, reference compound]
extent of cerebral infarction compared with the model group (MCAO rats [1]): significantly reduced | Percentage of cerebral infarction volume (%) (MCAO rats [1]; 0.053 mmol/kg): 31.0±7.50 % | neurological symptoms of rats compared with the model group (MCAO rats [2]): significantly improved | Score 2h (MCAO rats [2]; group dose 0.053 mmol/kg): 2.8±1.03 | Score 24h (MCAO rats [2]; 0.053 mmol/kg): 2.10±0.99 | Maximum platelet aggregation rate (%) ([3]; ig 200 mg/kg): 57.50±9.05 % | platelet aggregation rate compared with the solvent control group [3]: significantly different

CCCCC(O)c1ccccc1C(=O)O.NC12CC3CC(CC(C3)C1)C2 (stereo not shown) [Compound 1, amantadine 2-(1-hydroxypentyl)benzoate salt]
Mortality rate (%) (SD rats; high dose 105 mg/kg): 0% | Mortality rate (%) (SD rats; low dose 15 mg/kg): 0% | Mortality rate (%) (SD rats; medium dose 45 mg/kg): 0% | extent of cerebral infarction compared with the model group (MCAO rats [1]): significantly reduced | Percentage of cerebral infarction volume (%) (MCAO rats [1]; 0.016 mmol/kg): 25.7±5.29 % | neurological symptoms of rats compared with the model group (MCAO rats [2]): highly significant | Score 2h (MCAO rats [2]; group dose 0.016 mmol/kg): 2.8±1.14 | Score 24h (MCAO rats [2]; 0.016 mmol/kg): 1.60±0.84 | Maximum platelet aggregation rate (%) ([3]; ig 200 mg/kg): 34.60±9.57 % | Property ([4]; 0 day): White powder | Decomposition product butylphthalide % ([4]; 0 day): 0.114% | appearance [4]: remains unchanged | main peak and butylphthalide content [4]: minimal variation | Property ([4]; high humidity RH92.5%, 30 days): White powder | Decomposition product butylphthalide % ([4]; high humidity RH92.5%, 30 days): 0.298%

CC1C2CC3CC(C2)CC1(N)C3.CCCCC(O)c1ccccc1C(=O)O (stereo not shown) [Compound 3, 2-methyladamantan-1-amine 2-(1-hydroxypentyl)benzoate salt]
Maximum platelet aggregation rate (%) ([3]; ig 200 mg/kg): 37.50±9.42 %

CC12CC3CC(C)(C1)CC(N)(C3)C2.CCCCC(O)c1ccccc1C(=O)O (stereo not shown) [Compound 4, 3,5-dimethyladamantane-1-amine 2-(1-hydroxypentyl)benzoate salt]
Mortality rate (%) (SD rats; high dose 105 mg/kg): 0% | Mortality rate (%) (SD rats; low dose 15 mg/kg): 0% | Mortality rate (%) (SD rats; medium dose 45 mg/kg): 0% | extent of cerebral infarction compared with the model group (MCAO rats [1]): significantly reduced | Percentage of cerebral infarction volume (%) (MCAO rats [1]; 0.016 mmol/kg): 25.1±4.41 % | neurological symptoms of rats compared with the model group (MCAO rats [2]): highly significant | Score 2h (MCAO rats [2]; group dose 0.016 mmol/kg): 2.7±1.16 | Score 24h (MCAO rats [2]; 0.016 mmol/kg): 1.50±0.53 | Maximum platelet aggregation rate (%) ([3]; ig 200 mg/kg): 38.10±6.24 % | Property ([4]; 0 day): White powder | Decomposition product butylphthalide % ([4]; 0 day): 0.107% | appearance [4]: remains unchanged | main peak and butylphthalide content [4]: minimal variation | Property ([4]; high humidity RH92.5%, 30 days): White powder | Decomposition product butylphthalide % ([4]; high humidity RH92.5%, 30 days): 0.258% | Solubility ([5]; medium Water, about 0.01 g sample in 9.0 ml): Completely soluble | Solubility ([5]; medium pH4.5, about 0.01 g sample in 9.0 ml): Completely soluble | Solubility ([5]; medium pH6.8, about 0.01 g sample in 9.0 ml): Completely soluble

CCCC12CC3CC(CC(N)(C3)C1)C2.CCCCC(O)c1ccccc1C(=O)O (stereo not shown) [Compound 6, 3-n-propyladamantane-1-amine 2-(1-hydroxypentyl)benzoate salt]
Maximum platelet aggregation rate (%) ([3]; ig 200 mg/kg): 40.30±12.26 %

CCCCC(O)c1ccccc1C(=O)O.NC12CC3CC(C1)C(F)C(C3)C2 (stereo not shown) [Compound 7, 4-fluoroadamantane-1-amine 2-(1-hydroxypentyl)benzoate salt]
Maximum platelet aggregation rate (%) ([3]; ig 200 mg/kg): 37.90±12.60 %

CCCCC(O)c1ccccc1C(=O)O.N[C@@H]1[C@@H]2C[C@@H]3C[C@H]1C[C@@](O)(C3)C2 (stereo not drawn) [Compound 10, trans-1-hydroxyadamantan-4-amine 2-(1-hydroxypentyl)benzoate salt]
extent of cerebral infarction compared with the model group (MCAO rats [1]): significantly reduced | Percentage of cerebral infarction volume (%) (MCAO rats [1]; 0.016 mmol/kg): 25.8±4.52 % | neurological symptoms of rats compared with the model group (MCAO rats [2]): highly significant | Score 2h (MCAO rats [2]; group dose 0.016 mmol/kg): 2.9±1.52 | Score 24h (MCAO rats [2]; 0.016 mmol/kg): 1.61±1.07 | Maximum platelet aggregation rate (%) ([3]; ig 200 mg/kg): 38.20±12.25 %

CCCCC(O)c1ccccc1C(=O)O.NC1CCC(O)CC1 (stereo not shown) [Compound 13, 4-hydroxycyclohexan-1-amine 2-(1-hydroxypentyl)benzoate salt]
Maximum platelet aggregation rate (%) ([3]; ig 200 mg/kg): 42.10±5.99 %

CC1CC1N.CCCCC(O)c1ccccc1C(=O)O (stereo not shown) [Compound 15, 2-methylcyclopropane-1-amine 2-(1-hydroxypentyl)benzoate salt]
Maximum platelet aggregation rate (%) ([3]; ig 200 mg/kg): 41.10±6.45 %

CC(C)NC(C)C.CCCCC(O)c1ccccc1C(=O)O (stereo not shown) [Diisopropylamine salt, 2-(1-hydroxypentyl)benzoic acid diisopropylamine salt, reference compound]
Property ([4]; 0 day): White powder | Decomposition product butylphthalide % ([4]; 0 day): 0.087% | Property ([4]; high humidity RH92.5%, 30 days): White powder | Decomposition product butylphthalide % ([4]; high humidity RH92.5%, 30 days): 8.025%

CCCCC(O)c1ccccc1C(=O)O.c1ccc(CNCCNCc2ccccc2)cc1 [N'N-dibenzylethylenediamine salt, reference compound]
Maximum platelet aggregation rate (%) ([3]; ig 200 mg/kg): 46.6±10.78 % | platelet aggregation rate compared with the solvent control group [3]: highly significantly different | toxicity [6]: lower toxicity

CCCCC(O)c1ccccc1C(=O)[O-].[K+] (stereo not shown) [Potassium salt, 2-(1-hydroxypentyl)benzoic acid potassium salt, reference compound]
hygroscopicity [7]: highly hygroscopic | extent of cerebral infarction compared with the model group (MCAO rats [1]): significantly reduced | Percentage of cerebral infarction volume (%) (MCAO rats [1]; 0.016 mmol/kg): 29.7±5.72 % | neurological symptoms of rats compared with the model group (MCAO rats [2]): significantly improved | Score 2h (MCAO rats [2]; group dose 0.016 mmol/kg): 2.9±0.99 | Score 24h (MCAO rats [2]; 0.016 mmol/kg): 1.90±0.74 | Maximum platelet aggregation rate (%) ([3]; ig 200 mg/kg): 48.50±8.29 % | platelet aggregation rate compared with the solvent control group [3]: highly significantly different | Property ([4]; 0 day): White powder | Decomposition product butylphthalide % ([4]; 0 day): 0.090% | Property ([4]; high humidity RH92.5%, 30 days): Partially deliquescent and liquefied | Decomposition product butylphthalide % ([4]; high humidity RH92.5%, 30 days): 25.687% | toxicity [6]: greater toxicity

CC(C)(C)N.CCCCC(O)c1ccccc1C(=O)O (stereo not shown) [Tert-butylamine salt, 2-(1-hydroxypentyl)benzoic acid tert-butylamine salt, reference compound]
Property ([4]; 0 day): White powder | Decomposition product butylphthalide % ([4]; 0 day): 0.041% | Property ([4]; high humidity RH92.5%, 30 days): White powder | Decomposition product butylphthalide % ([4]; high humidity RH92.5%, 30 days): 10.214% | toxicity [6]: highly toxic

CCCCC(O)c1ccccc1C(=O)O.NCc1ccccc1 (stereo not shown) [benzylamine salt]
toxicity [6]: highly toxic

Bicyclo[2,2,1]heptane-2-amine 2-(1-hydroxypentyl)benzoate salt [Compound 16]
Maximum platelet aggregation rate (%) ([3]; ig 200 mg/kg): 44.10±5.15 %

Source: patent EP4685128A1, “NOVEL 2-(1-HYDROXYPENTYL) BENZOIC ACID CYCLOALKYL AMINE SALT” (priority 2023, dated 2024)
